From PubChem BioAssay (NCI) come the findings set out here.

Among the test systems are A498 renal; ACHN renal; BT-549 breast; HCT-15 colon; KM12 colon; MALME-3M melanoma; MDA-MB-435; MOLT-4 leukemia; OVCAR-4 ovarian; PC-3 prostate; SK-MEL-2 melanoma; SK-MEL-28 melanoma; SK-OV-3 ovarian; SNB-75 CNS; T-47D breast; TK-10 renal; U251 CNS; K-562 leukemia; SF-539 CNS; SR leukemia.
What all share (experiment): DTP human tumour cell line panel, 48 h

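96-well plates; 48 h exposure; 5 concentrations. Endpoints by linear interpolation between flanking doses. Not reached: highest tested concentration assigned. TGI marks complete inhibition of growth.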

A word on the TGI: it is the concentration at which net growth stops. Low values mean more potent growth arrest, high ones less potent growth arrest. Consider `COc1cc(/C=C2/C[C@H]3[C@@H]4CCC5=CC(=O)CC[C@]5(C)[C@H]4CC[C@]3(C)NC2=O)cc(OC)c1OC`, for which the TGI in the assay with A498 renal is 41.6 µM; with ACHN renal, above 100 µM; with BT-549 breast it was 53.7 µM; in the assay with HCT-15 colon it was above 100 µM; in the assay on KM12 colon, above 100 µM; with MALME-3M melanoma, 72.2 µM. Besides, the TGI in the assay on MDA-MB-435, with MOLT-4 leukemia, in the assay with OVCAR-4 ovarian, in the assay on PC-3 prostate, in the assay with SK-MEL-2 melanoma and in the assay on SK-MEL-28 melanoma was above 100 µM in each case. In addition, the TGI with SK-OV-3 ovarian was above 100 µM; in the assay with SNB-75 CNS, above 100 µM; with T-47D breast, 63 µM; in the assay with TK-10 renal, 56.2 µM; in the assay on U251 CNS, 57.1 µM.
As to `C/C(=N\N=C(\N)OB(F)F)c1ccccn1`, the TGI in the assay on A498 renal, with ACHN renal, in the assay on BT-549 breast, with HCT-15 colon, in the assay on K-562 leukemia and with KM12 colon was above 100 µM in each case. For the same compound, the TGI with MALME-3M melanoma, with MDA-MB-435, in the assay on OVCAR-4 ovarian, with SF-539 CNS, in the assay with SK-MEL-2 melanoma and in the assay with SK-MEL-28 melanoma was above 100 µM throughout. The TGI in the assay on SNB-75 CNS is 55.7 µM; with SR leukemia, above 100 µM; in the assay with T-47D breast it was above 100 µM; in the assay with TK-10 renal, above 100 µM; in the assay on U251 CNS, above 100 µM.
In the case of `CC(C)Cc1ccc(C(C)/C=C2\CCC(CN3CCOCC3)C2=O)cc1` (centres undefined), the TGI in the assay on A498 renal was 27 µM; in the assay with ACHN renal it was 29.4 µM; with BT-549 breast, 35.2 µM; in the assay with HCT-15 colon, 16.4 µM; with K-562 leukemia, 12.4 µM; in the assay on KM12 colon, 16.9 µM. Besides, the TGI came out at 32 µM in the assay with MALME-3M melanoma; 20.2 µM in the assay with MDA-MB-435; 11 µM in the assay with MOLT-4 leukemia; 33.4 µM in the assay on OVCAR-4 ovarian; 25.4 µM with PC-3 prostate; 19.8 µM in the assay with SF-539 CNS. In addition, the TGI in the assay on SK-MEL-2 melanoma worked out at 31.3 µM; with SK-MEL-28 melanoma, 22.8 µM; in the assay with SK-OV-3 ovarian, 32.8 µM; with SNB-75 CNS, 22.1 µM; with SR leukemia, 13.8 µM; in the assay on TK-10 renal, 14.9 µM. In the assay with U251 CNS, this compound had a TGI of 27.7 µM.
Consider `Nc1ccc(-c2nc3cc(F)ccc3s2)cc1Br`, for which the TGI in the assay with A498 renal is above 100 µM; in the assay with ACHN renal it was above 100 µM; in the assay with BT-549 breast, above 74.1 µM; in the assay on HCT-15 colon, above 65.1 µM; in the assay with K-562 leukemia, above 100 µM; in the assay with KM12 colon it was above 100 µM. The TGI with MALME-3M melanoma is above 100 µM; in the assay on MDA-MB-435 it was above 100 µM; with MOLT-4 leukemia, above 100 µM; in the assay on OVCAR-4 ovarian, above 100 µM; with PC-3 prostate, above 100 µM; with SF-539 CNS, above 71.4 µM. Also, the TGI was above 100 µM in the assay on SK-MEL-2 melanoma; above 100 µM in the assay on SK-MEL-28 melanoma; above 100 µM with SK-OV-3 ovarian; 77.9 µM with SNB-75 CNS; above 100 µM with T-47D breast; 57.8 µM in the assay with U251 CNS.
Turning to `N#Cc1cc2c(n(C3OC(CO)C(O)C(O)C3O)c1=S)CCCCC2` (centres undefined), the TGI in the assay with A498 renal, in the assay with ACHN renal, with BT-549 breast, with HCT-15 colon, in the assay with K-562 leukemia and with KM12 colon was above 100 µM in each case. The TGI in the assay with MALME-3M melanoma, in the assay on MDA-MB-435, in the assay on MOLT-4 leukemia, in the assay on OVCAR-4 ovarian, in the assay with PC-3 prostate and with SF-539 CNS was above 100 µM throughout. For the same compound, the TGI with SK-MEL-2 melanoma, in the assay with SK-MEL-28 melanoma, in the assay on SNB-75 CNS, in the assay on SR leukemia, in the assay with TK-10 renal and in the assay on U251 CNS was above 100 µM each time.
Regarding `Cc1ccc2c(=O)c(-c3nnsn3)c[nH]c2n1`, the TGI in the assay on A498 renal, with ACHN renal, in the assay on BT-549 breast, with HCT-15 colon, with K-562 leukemia and in the assay on KM12 colon was above 100 µM each time. Besides, the TGI with MALME-3M melanoma, in the assay with MDA-MB-435, in the assay on MOLT-4 leukemia, with OVCAR-4 ovarian, in the assay with PC-3 prostate and in the assay on SK-MEL-2 melanoma was above 100 µM throughout. The concentration for total growth inhibition (TGI) in the assay with SK-MEL-28 melanoma, in the assay on T-47D breast, with TK-10 renal and in the assay with U251 CNS was above 100 µM throughout.
Turning to `CC(C)N(CCCNc1c2ccccc2nc2cccc([N+](=O)[O-])c12)C(C)C`, the TGI in the assay on A498 renal is 0.0433 µM; in the assay with ACHN renal, below 0.0301 µM; in the assay with BT-549 breast, below 0.0442 µM; with HCT-15 colon, 0.012 µM; in the assay with K-562 leukemia, 62.3 µM; in the assay with MDA-MB-435, below 0.018 µM. Further, the TGI was 0.103 µM with OVCAR-4 ovarian; 0.527 µM in the assay with PC-3 prostate; below 0.0437 µM in the assay on SF-539 CNS; 0.24 µM in the assay on SK-MEL-2 melanoma; below 0.01 µM in the assay with SK-MEL-28 melanoma; 0.149 µM in the assay with SNB-75 CNS. In addition, the TGI was 11.8 µM in the assay with SR leukemia and below 0.0365 µM with U251 CNS.
